Measurements as given in BindingDB's records for patent US12215173 (Humanwell Pharmaceutical US, 2025).
Square brackets hold non-standard residues; d marks the D form. Peptide text beside a SMILES is read from it. * marks the point of attachment. Pyrrolidino(3-NH2-3-COOH) = NC1(C(=O)O)CCN(*)C1; dTic = O=C(O)[C@H]1Cc2ccccc2CN1

How the values were obtained:
Experiment in all cases: Opioid Receptor Binding Assay
[1] = biological target: Kappa-type opioid receptor (Homo sapiens, UniProt P41145)
Experimental: (§1) The assay buffers used for opioid receptor binding studies were 50 mM Tris HCl (pH 7.4) for KOR, 50 mM Tris HCl (pH 7.4) with 5 mM MgCl2 for MOR, and 50 mM Tris HCl (pH 7.4) with 10 mM MgCl2 plus 1 mM EDTA for DOR. Wash buffer contained 50 mM Tris HCl at pH 7.4. […] DADLE, which were used as the competing radioligands for mu, kappa and delta receptors, respectively.

[2] = biological target: Delta-type opioid receptor (Homo sapiens, UniProt P41143)
Experimental: as §1

[3] = biological target: Mu-type opioid receptor (Homo sapiens, UniProt P35372)
Mu-type opioid receptor, sequence (P35372 whole entry): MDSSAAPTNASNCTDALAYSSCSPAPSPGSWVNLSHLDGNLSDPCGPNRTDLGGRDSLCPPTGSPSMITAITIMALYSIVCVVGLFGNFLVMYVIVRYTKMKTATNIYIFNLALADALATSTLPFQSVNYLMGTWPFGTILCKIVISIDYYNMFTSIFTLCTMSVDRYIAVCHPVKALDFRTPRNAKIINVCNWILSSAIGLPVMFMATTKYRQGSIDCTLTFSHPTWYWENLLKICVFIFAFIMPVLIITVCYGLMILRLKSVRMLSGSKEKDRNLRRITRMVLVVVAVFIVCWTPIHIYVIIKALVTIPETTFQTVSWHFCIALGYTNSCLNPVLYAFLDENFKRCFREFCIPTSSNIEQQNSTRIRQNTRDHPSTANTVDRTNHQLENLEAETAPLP
Experimental: as §1

Kappa-type opioid receptor, sequence (P41145 whole entry): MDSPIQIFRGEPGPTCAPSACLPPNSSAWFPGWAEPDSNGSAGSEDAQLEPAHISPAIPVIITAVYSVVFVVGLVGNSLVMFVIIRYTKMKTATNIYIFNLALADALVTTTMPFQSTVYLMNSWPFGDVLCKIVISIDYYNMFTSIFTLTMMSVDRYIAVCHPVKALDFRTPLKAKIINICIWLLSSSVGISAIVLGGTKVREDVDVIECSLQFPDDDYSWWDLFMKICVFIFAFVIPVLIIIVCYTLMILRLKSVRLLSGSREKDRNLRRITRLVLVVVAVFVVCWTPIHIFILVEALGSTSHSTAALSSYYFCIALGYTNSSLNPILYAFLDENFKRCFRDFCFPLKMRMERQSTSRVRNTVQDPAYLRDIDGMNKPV
Delta-type opioid receptor, sequence (P41143 whole entry): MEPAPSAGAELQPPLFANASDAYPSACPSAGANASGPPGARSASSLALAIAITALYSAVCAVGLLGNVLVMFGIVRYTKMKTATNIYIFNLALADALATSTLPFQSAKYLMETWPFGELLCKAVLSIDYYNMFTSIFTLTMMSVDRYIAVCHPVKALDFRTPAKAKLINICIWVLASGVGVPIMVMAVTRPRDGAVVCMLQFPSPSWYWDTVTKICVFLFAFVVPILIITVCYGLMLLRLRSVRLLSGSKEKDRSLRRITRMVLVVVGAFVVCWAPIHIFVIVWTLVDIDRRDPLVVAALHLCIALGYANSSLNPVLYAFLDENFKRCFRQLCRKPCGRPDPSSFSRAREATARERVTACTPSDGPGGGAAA

## CC(C)C[C@@H](NC(=O)[C@@H](Cc1ccccc1)NC(=O)[C@H](N)Cc1ccccc1)C(=O)N[C@H](CCCCN)C(=O)NCc1cccc(C(=O)O)n1 [US12215173, Compound 13-6]
[1]
  IC50: 0.00945 µM
[2]
  IC50: > 10 µM
[3]
  IC50: > 10 µM

## CC(C)C[C@@H](NC(=O)[C@@H](Cc1ccccc1)NC(=O)[C@H](N)Cc1ccccc1)C(=O)N[C@H](CCCCN)C(=O)NCCC[C@H](N)C(=O)O [US12215173, Compound 13-44]
[1]
  IC50: 0.00046 µM
[2]
  IC50: > 10 µM
[3]
  IC50: > 10 µM

## CC(C)C[C@@H](NC(=O)[C@@H](Cc1ccccc1)NC(=O)[C@H](N)Cc1ccccc1)C(=O)N[C@H](CCCCN)C(=O)N1CCC(O)(CO)CC1 [US12215173, Compound 13-65]
[1]
  IC50: 0.00045 µM
[2]
  IC50: > 10 µM
[3]
  IC50: > 10 µM

## COC(=O)C1(N)CCN(C(=O)[C@@H](CCCCN)NC(=O)[C@H](NC(=O)[C@@H](Cc2ccccc2)NC(=O)[C@H](N)Cc2ccccc2)C(C)(C)C)CC1 [US12215173, Compound 100]
[1]
  IC50: 0.013 µM
[2]
  IC50: > 10 µM
[3]
  IC50: > 10 µM

## COC(=O)C1(N)CCN(C(=O)[C@@H](CCCCN)NC(=O)[C@H](NC(=O)[C@@H](Cc2ccccc2)NC(=O)[C@H](N)Cc2ccccc2)C(C)(C)C)C1 (stereo partly specified) [US12215173, Compound 103]
[1]
  IC50: 0.0144 µM
[2]
  IC50: > 10 µM
[3]
  IC50: > 10 µM

## CC(C)C[C@@H](NC(=O)[C@@H](Cc1ccccc1)NC(=O)[C@H]1Cc2ccccc2CN1)C(=O)N[C@H](CCCCN)C(=O)N1CCC(N)(C(=O)O)C1 (stereo partly drawn) [US12215173, Compound 169] (H-[dTic][dF][dL][dK]-{Pyrrolidino(3-NH2-3-COOH)})
[1]
  IC50: 0.0888 µM

## COC(=O)C1(N)CCN(C(=O)[C@@H](CCCCN)NC(=O)[C@@H](CC(C)C)NC(=O)[C@@H](Cc2ccccc2)NC(=O)[C@H]2Cc3ccccc3CN2)CC1 [US12215173, Compound 171]
[1]
  IC50: 0.00083 µM
[2]
  IC50: > 10 µM
[3]
  IC50: > 10 µM

## CC(C)C[C@@H](NC(=O)[C@@H](Cc1ccccc1)NC(=O)[C@H]1Cc2ccccc2CN1)C(=O)N[C@H](CCCCN)C(=O)N1CCC(N)(C(=O)O)CC1 [US12215173, Compound 172]
[1]
  IC50: 0.00402 µM
[2]
  IC50: > 10 µM
[3]
  IC50: > 10 µM

## COC(=O)C1(N)CCN(C(=O)[C@@H](CCCCN)NC(=O)[C@@H](CC(C)C)NC(=O)[C@@H](Cc2ccccc2)NC(=O)[C@H](N)Cc2ccc(F)cc2)C1 (stereo partly specified) [US12215173, Compound 181]
[1]
  IC50: 0.0004 µM
[2]
  IC50: > 10 µM
[3]
  IC50: > 10 µM

## COC(=O)C1(N)CCN(C(=O)[C@@H](CCCCN)NC(=O)[C@@H](CC(C)C)NC(=O)[C@@H](Cc2ccccc2)NC(=O)[C@H](N)Cc2ccc(F)cc2)CC1 [US12215173, Compound 184]
[1]
  IC50: 0.00025 µM
[2]
  IC50: > 10 µM
[3]
  IC50: 8.09 µM

## COC(=O)C1(N)CCN(C(=O)[C@@H](CCCCN)NC(=O)[C@@H](CC(C)C)NC(=O)[C@@H](Cc2ccccc2)NC(=O)[C@H](N)Cc2ccc(C(F)(F)F)cc2)C1 (stereo partly specified) [US12215173, Compound 194]
[1]
  IC50: 0.00407 µM
[2]
  IC50: > 10 µM
[3]
  IC50: 7.34 µM
